Columns and labels:
[1] = biological target: A. gallica protoilludene synthase (Armillaria gallica, UniProt P0DL13); format: biochemical
[2] = biological target: T1, Pro1 (A. gallica protoilludene synthase) expressed in Escherichia coli (Armillaria gallica, UniProt P0DL13); assay: Sesquiterpene synthase activity of crude soluble protein extract of E. coli expressing Pro1 (radio-TLC); format: biochemical; conditions: same Pro1 lysate incubated with diterpene synthase substrate
T1 construct: A. gallica protoilludene synthase (clone Pro1); made in house; host or cells: E. coli BL21 (DE3) CodonPlus, vector pDEST14; crude soluble lysate
Method: Escherichia coli protein extracts were prepared by resolving the cell pellet from cultivation in the described extraction puffer and cells were lysed under constant cooling by two rounds of Microfluidizer treatment.
Part of the organic extract was then spotted onto silica-gel TLC plates and separated using 9:1 cyclohexane:ethyl acetate as the solvent, prior to analysis in a radio-TLC reader (Raytest, Straubenhardt). For the determination of KM values the reactions were stopped by quenching with 100 mM EDTA (final concentration) followed by extraction with n-pentane, purification by silica gel column chromatography and quantitation by liquid scintillation counting. All kinetic activity assays were performed in triplicate. Mass spectrometry analysis of solvent extracts was performed on a QP2010S quadrupole mass spectrometer (Shimadzu) equipped with an Rxi™-5 ms (0.25 mm ID, 30 m length) column (Restek) using the following temperature program: 80° C. for 20 min, followed by heating the column at an rate of 15° C./min to 300° C. with a final constant temperature of 300° C. for 4 min. Fragmentation was achieved by electric ionization at […].
Where cDNA sequencing identified potential terpene synthase clones, the corresponding pENTRY vectors were used in LR recombination reactions involving the pDEST14 destination vector. […]

SMILES: [Cl][Mn][Cl] [MnCl2]
- fall of protoilludene synthase activity ([1]; 5 mM MgCl2 replaced with MnCl2, relative to highest activity with MgCl2): 75%

SMILES: CCO [ethanol]
- effect on enzyme activity [1]: dramatic reduction in activity

SMILES: CC(C)=CCC/C(C)=C/CC/C(C)=C/CC/C(C)=C/COP(=O)(O)OP(=O)(O)O [gernaylgeranyl diphosphate, geranylgeranyl diphosphate]
- substrate converted into less polar product [2]: < 1%

— patent publication US9005939B2, “Protoilludene synthase” (priority 2010, dated 2015)
